The text below walks through data of PMC11224357, “Green, facile synthesis and evaluation of unsymmetrical carbamide derivatives as antimicrobial and anticancer agents with mechanistic insights” (Scientific Reports, 2024).

The subject of series [1] is HCT-116 cells. The series is described as follows: Cell cycle analysis by flow cytometry (PI staining). Format: cell-based, human. On the procedure:
The ethanol-suspended cells were centrifuged and re-suspended in 5 mL 1 × DPBS, then centrifuged again before being re-suspended in 1 mL of PI staining solution. The stained cells were kept in the dark at room temperature for 30 min before being transferred to the CytoFLEX Flow Cytometer to measure their fluorescence. […] BECKMAN COULTER Inc., Cairo, Egypt, Cat. No. 4238055-CB was used in this assay.

Series [2] deals with HCT-116 cells. The series is described as follows: Annexin V-FITC/PI necrosis cell apoptosis assay. The format is cell-based, human. The conditions noted are these: % of population. The method, then: The levels of necrosis and apoptosis in cells were determined by CytoFLEX Flow Cytometer. A total of 1 × 10^6 cells were washed in 1 × DPBS, and then were centrifuged at 500 × ϲ for 5 min. 1 μL of annexin V-FITC solution and 5 μL of dissolved PI were added to 100 μL of the cell suspensions that kept on ice and were incubated for 15 min in the dark. Cells were then analyzed by the CytoFLEX Flow Cytometer (Beckman Coulter Life Sciences, USA) and the percentage of apoptotic cells was determined using CytExpert Software.

In a further series the test system is Pseudomonas aeruginosa. As to the kind of experiment: Agar well diffusion. The format is cell-based. Particulars: read-out: Inhibition Zone. The source says: (§1) The antimicrobial efficiency of the synthesized unsymmetrical carbamide derivatives was screened using standard clinical pathogens derived from Department of Microbiology and Immunology, Faculty of Medicine (Boys), Al-Azhar University. The tested microbial pathogens used in this study were as follows, two Gram-positive bacteria (Bacillus subtilis, Staphylococcus aureus), two Gram-negative bacteria (Pseudomonas aerginousea, klebsiella pneumoniae) and two fungi (Candida albicans, Aspergillus fumgitus). Before each antimicrobial examination, pre-activation of each microbial pathogen was implemented using specific growth conditions. […] Consequently, each tested pathogen justified its inoculum size based on Colony Forming Units (CFU) to be closed to […] during all antimicrobial tests.
On the technique in general: Agar diffusion results depend on both activity and mobility in agar.

The test system of another series is Klebsiella pneumonia. The series is described as follows: Agar well diffusion. The format is cell-based. Particulars: Klebsiella pneumoniae, read-out: Inhibition Zone.
Description: as §1

For another series, the system named is Bacillus subtilis. The series is described as follows: Agar well diffusion. The format is cell-based. The conditions noted are these: read-out: Inhibition Zone.
Description: as §1

For the next series, the system named is Candida albicans. As to the kind of experiment: Agar well diffusion. The conditions noted are these: read-out: Inhibition Zone. Format: cell-based. From the text:
(§2) The antimicrobial efficiency of the synthesized unsymmetrical carbamide derivatives was screened using standard clinical pathogens derived from Department of Microbiology and Immunology, Faculty of Medicine (Boys), Al-Azhar University. The tested microbial pathogens used in this study were as follows, two Gram-positive bacteria (Bacillus subtilis, Staphylococcus aureus), two Gram-negative bacteria (Pseudomonas aerginousea, klebsiella pneumoniae) and two fungi (Candida albicans, Aspergillus fumgitus). Before each antimicrobial examination, pre-activation of each microbial pathogen was implemented using specific growth conditions. For bacterial ones, preinoculum was prepared using Nuitrent broth medium (Codalab, Spain) at 37 °C for 24 h. while the fungal pathogens were activated using Potato Dextrose broth (Codalab, Spain) at 28 °C for 48 h. Consequently, each tested pathogen justified its inoculum size based on Colony Forming Units (CFU) to be closed to […] during all antimicrobial tests.

The test system of a further series is Aspergillus fumagitus. As to the kind of experiment: Agar well diffusion. Format: cell-based. The conditions noted are these: Aspergillus, read-out: Inhibition Zone.
Description: as §2

Series [3] deals with MCF-7 (human breast cancer). As to the kind of experiment: MTT cytotoxicity assay. The format is cell-based. The conditions noted are these: Homo sapiens, MCF7, 48 h. On the procedure: The MTT 3-(4,5-dimethylthiazol-2-yl)-2,5-diphenyl-tetrazolium bromide (Bio Basic Canada Inc. Toronto, Canada) assay was used to assess cell viability. The procedures were carried out in a biosafety class II sterile laminar air flow cabinet (Baker, SG403INT; Sanford, ME, USA). […] Cells were seeded at a density of (10^4 cells/well) into 96-well micro titer polypropylene plates and left to adhere for 24 h. […] After 48 h of incubation, 40 µL of MTT salt ([…]) was applied to each well. […] Instead of the tested substances, the medium was applied to the untreated cells (negative control). […] The testing substance was dissolved in dimethylsulfoxide (DMSO), and its final concentration in the cells was less than 0.2%. The solvent concentration was the same for all medications and between the control and drug treatments at the same dilution.
A general note: Formazan colour is commonly taken as a measure of viable cells.

Another series can be described thus: MTT cytotoxicity assay. Particulars: human, BJ-1 normal cells. Format: cell-based, human. On the procedure: (§3) The MTT 3-(4,5-dimethylthiazol-2-yl)-2,5-diphenyl-tetrazolium bromide (Bio Basic Canada Inc. Toronto, Canada) assay was used to assess cell viability. The procedures were carried out in a biosafety class II sterile laminar air flow cabinet (Baker, SG403INT; Sanford, ME, USA). […] Cells were seeded at a density of (10^4 cells/well) into 96-well micro titer polypropylene plates and left to adhere for 24 h. The media was aspirated and the test chemicals were given to the cells in a single dose of 100 µM in DMSO. After 48 h of incubation, 40 µL of MTT salt ([…]) was applied to each well. […] Instead of the tested substances, the medium was applied to the untreated cells (negative control). […] The testing substance was dissolved in dimethylsulfoxide (DMSO), and its final concentration in the cells was less than 0.2%. The solvent concentration was the same for all medications and between the control and drug treatments at the same dilution.

For series [4], the system named is BJ-1 (human normal skin fibroblast cells). The series is described as follows: MTT cytotoxicity assay. The format is cell-based. The conditions noted are these: BJ-1 normal cells, 100 µM. The method, then:
as §3

Series [5] relates to HCT-116 (human colon cancer). As to the kind of experiment: MTT cytotoxicity assay. The format is cell-based. The method, then: as §3

As usually defined, the melting point is the temperature of the solid-liquid transition. As a reminder, the IC50 is the concentration needed to halve the response being measured. Regarding `CN1CCN(C(=O)Nc2ccccc2)CC1` [Compound 21, 4-Methyl-N-phenylpiperazine-1-carboxamide], the melting point fell in the range of 128 to 130 °C. For the same molecule, the “cell cycle arrest (phase)” value with HCT-116 cells [1] is given as “weaker than those of compound 13”. In the series with HCT-116 cells [2], the early apoptosis worked out at 0.99% and the late apoptosis is given as 0.44%. The zone of inhibition at 20 µg/mL in the series with Pseudomonas aeruginosa was 2 mm. Further, in the series with Klebsiella pneumonia, the zone of inhibition at 20 µg/mL came to 3 mm. Also, in the series on Bacillus subtilis, the zone of inhibition at 20 µg/mL stood at 4 mm. Also, the zone of inhibition at 20 µg/mL with Candida albicans is 3 mm. Besides, the zone of inhibition at 20 µg/mL with Aspergillus fumagitus stood at 2 mm. Also, the cytotoxicity at 100 µM in series [3] is not below 51%. Half-maximal inhibition in [3] (MCF-7, MTT, 48 h) (IC50) was put at 91.6 ± 0.112 µM. In addition, the cytotoxicity at 48 h, 100 µM in the series “MTT cytotoxicity assay” worked out at 38.9%. For the same molecule, the “Cytotoxicity (%)” value in series [4] amounted to 47.2%. In [5] (HCT-116, 48 h), this molecule yielded a cytotoxicity at 100 µM not below 65%. The molecule further displayed an IC50 in [5] (HCT-116, MTT, 48 h) of 38.5 ± 0.17 µM.
